Among the test systems are HCT-15 colon; MDA-MB-435; LOX IMVI melanoma; NCI-H460 lung; MCF7 breast; SK-MEL-5 melanoma; UACC-62 melanoma; OVCAR-8 ovarian; HS 578T breast; SNB-75 CNS.
What all share (experiment): NCI-60 cell line screen, 48 h

In PubChem BioAssay (NCI) one finds TGI data, which are given here for 20 compounds.

SMILES strings stand for the structures.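 These data come from cells grown in 96-well plates and exposed to compound for 48 hours at five concentrations. TGI marks complete inhibition of growth.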

Turning to `COc1ccc(/C=C/C=C2C(=O)NC(=S)NC2=O)cc1`, the TGI in the assay with HCT-15 colon amounted to 8.68 µM; in the assay with MDA-MB-435 it was 7.77 µM; in the assay with LOX IMVI melanoma, 3.97 µM; in the assay with NCI-H460 lung, 30.6 µM; in the assay with MCF7 breast, 22 µM; with SK-MEL-5 melanoma, 26.1 µM. Further, the TGI was 9.1 µM with UACC-62 melanoma, 13.1 µM with OVCAR-8 ovarian, > 56.6 µM with HS 578T breast and 47.2 µM with SNB-75 CNS.

Regarding `Nc1c2c(nc3ccccc13)-c1ccccc1CCC2`, the TGI came to 27.3 µM in the assay on HCT-15 colon; 26.3 µM with MDA-MB-435; 25.3 µM with LOX IMVI melanoma; 18 µM in the assay on NCI-H460 lung; 28.6 µM in the assay with MCF7 breast; 20.1 µM with SK-MEL-5 melanoma. Further, the TGI in the assay on UACC-62 melanoma was 22.7 µM; in the assay with OVCAR-8 ovarian, 29.1 µM; in the assay with HS 578T breast, 43.2 µM; in the assay on SNB-75 CNS, 24.2 µM.

In the case of `CC(=O)NC1=NC(=O)/C(=C/c2ccc(Cl)cc2Cl)N1C`, the TGI in the assay on HCT-15 colon, in the assay with MDA-MB-435, in the assay with LOX IMVI melanoma, with NCI-H460 lung, in the assay on MCF7 breast and in the assay on SK-MEL-5 melanoma was > 100 µM each time. Moreover, the TGI in the assay with UACC-62 melanoma was 88.2 µM; in the assay on OVCAR-8 ovarian it was > 100 µM; with HS 578T breast, > 100 µM; in the assay on SNB-75 CNS it was > 100 µM.

Regarding `CCCCOP(=O)(OCCCC)C(NS(=O)(=O)c1ccccc1)(C(=O)OCC)C(F)(F)F` (stereo not given), the TGI with HCT-15 colon is > 100 µM; in the assay on MDA-MB-435, 56.3 µM; in the assay with LOX IMVI melanoma, 96.9 µM; in the assay on NCI-H460 lung, > 100 µM; in the assay on MCF7 breast, 76.1 µM; with SK-MEL-5 melanoma, 33.9 µM. Besides, the TGI in the assay on UACC-62 melanoma was > 100 µM; with OVCAR-8 ovarian, > 100 µM; with HS 578T breast, > 100 µM; in the assay on SNB-75 CNS, 78.1 µM.

Regarding `COC(=O)/C=C1\C(=O)N(C(C)=O)c2ccccc21`, the TGI in the assay on HCT-15 colon turned out to be 26.2 µM; in the assay on MDA-MB-435, 32.2 µM; in the assay with LOX IMVI melanoma, 18.7 µM; in the assay with NCI-H460 lung, 27.1 µM; with MCF7 breast, 28.2 µM; with SK-MEL-5 melanoma it was 27.8 µM. Moreover, the TGI with UACC-62 melanoma turned out to be 18.4 µM; in the assay with OVCAR-8 ovarian, 45.6 µM; in the assay on HS 578T breast it was 25.8 µM; with SNB-75 CNS, 28.4 µM.

Take `COc1cc(C(C)(C)C)c(OC(=O)/C=C/C(=O)O/C=C/[N+](=O)[O-])c(C(C)(C)C)c1`: the TGI was 48.4 µM with HCT-15 colon; 58.1 µM in the assay with MDA-MB-435; 75.6 µM in the assay on LOX IMVI melanoma; > 100 µM with NCI-H460 lung; 40.4 µM in the assay with MCF7 breast; > 100 µM with SK-MEL-5 melanoma. The TGI was > 100 µM in the assay on UACC-62 melanoma, > 100 µM in the assay with OVCAR-8 ovarian, 63.9 µM in the assay on HS 578T breast and > 100 µM in the assay on SNB-75 CNS.

On to `CC(C)=CCC[C@@H](C)c1c(O)c(O)c(C)c2nc3ccccc3nc12`, for which the TGI in the assay with HCT-15 colon was determined as 15 µM; with MDA-MB-435, 18.3 µM; with LOX IMVI melanoma, 16.8 µM; in the assay with NCI-H460 lung, 32.4 µM; in the assay with MCF7 breast, 13.4 µM; in the assay with SK-MEL-5 melanoma it was 10.6 µM. Further, the TGI in the assay on UACC-62 melanoma was determined as 6.72 µM; in the assay with OVCAR-8 ovarian, 24.2 µM; in the assay with HS 578T breast it was 8.37 µM; in the assay on SNB-75 CNS it was 6.8 µM.

Take `O=C1N2CCN=C2c2ccccc2C1(O)c1ccccc1` (stereo not given): the TGI in the assay with HCT-15 colon, with MDA-MB-435, with LOX IMVI melanoma, with NCI-H460 lung, with MCF7 breast and with SK-MEL-5 melanoma was > 100 µM in each case. The TGI in the assay with UACC-62 melanoma, in the assay on OVCAR-8 ovarian, in the assay on HS 578T breast and with SNB-75 CNS was > 100 µM in each case.

On to `COc1cc2[nH]c(=O)[nH]c2c2c(C)c[nH]c12`, for which the TGI in the assay on HCT-15 colon, in the assay on MDA-MB-435, in the assay on LOX IMVI melanoma, in the assay with NCI-H460 lung, in the assay on MCF7 breast and with SK-MEL-5 melanoma was > 100 µM in each case. Moreover, the TGI in the assay on UACC-62 melanoma, in the assay with OVCAR-8 ovarian, with HS 578T breast and with SNB-75 CNS was > 100 µM throughout.

Regarding `CC1CN=C(c2ccc3c(c2)Cc2cc(C4=NCC(C)N4)ccc2-3)N1` (stereo not given), the TGI in the assay on HCT-15 colon is > 100 µM; with MDA-MB-435, 63.9 µM; in the assay with LOX IMVI melanoma, > 100 µM; in the assay with NCI-H460 lung, 86.8 µM; in the assay on MCF7 breast, 65.3 µM; in the assay on SK-MEL-5 melanoma, > 100 µM. The TGI in the assay with UACC-62 melanoma is 99 µM; in the assay with OVCAR-8 ovarian, > 100 µM; in the assay on HS 578T breast, > 100 µM; in the assay with SNB-75 CNS, > 100 µM.

For `CCOC(=O)n1c2ccccc2c2c(O)c(OC)c3c(c21)C(=O)NC3=O`, the TGI in the assay with HCT-15 colon was > 100 µM; with MDA-MB-435, > 100 µM; with LOX IMVI melanoma it was 38.9 µM; with NCI-H460 lung, > 100 µM; in the assay with MCF7 breast, > 100 µM; with SK-MEL-5 melanoma, > 100 µM. For the same compound, the TGI in the assay on UACC-62 melanoma, in the assay on OVCAR-8 ovarian, in the assay with HS 578T breast and with SNB-75 CNS was > 100 µM throughout.

Turning to `Cc1cc([C@H](C#N)c2nc3ccccc3s2)nc(Cl)n1`, the TGI in the assay with HCT-15 colon is 16.3 µM; with MDA-MB-435, 19.6 µM; with LOX IMVI melanoma, 10.4 µM; in the assay with NCI-H460 lung, 15.3 µM; with MCF7 breast, > 100 µM; with SK-MEL-5 melanoma, 45.9 µM. In addition, the TGI in the assay on UACC-62 melanoma was determined as 20.5 µM; with OVCAR-8 ovarian, 14.3 µM; in the assay on HS 578T breast, 33.3 µM; in the assay on SNB-75 CNS it was 6.54 µM.

Consider `CS(=O)(=O)c1ccc(C2=C(c3ccccc3)C(=O)OC2)cc1`, for which the TGI with HCT-15 colon, with MDA-MB-435, with LOX IMVI melanoma, in the assay on NCI-H460 lung, in the assay with MCF7 breast and in the assay with SK-MEL-5 melanoma was > 100 µM each time. In addition, the TGI in the assay with UACC-62 melanoma, in the assay on OVCAR-8 ovarian, with HS 578T breast and with SNB-75 CNS was > 100 µM in each case.

For the compound `Clc1ccc2nc3c(c(-c4ccccc4)nn3-c3ccccc3)c(-c3ccccc3)c2c1`, the TGI in the assay with HCT-15 colon, in the assay with MDA-MB-435, in the assay with LOX IMVI melanoma, in the assay on NCI-H460 lung, in the assay with MCF7 breast and in the assay with SK-MEL-5 melanoma was > 100 µM each time. Also, the TGI in the assay on UACC-62 melanoma, with OVCAR-8 ovarian, in the assay on HS 578T breast and in the assay with SNB-75 CNS was > 100 µM throughout.

Consider `O=c1[nH]nc(Nc2ccccc2)c2nnn(Cc3ccccc3)c12`, for which the TGI in the assay with HCT-15 colon, in the assay on MDA-MB-435, with LOX IMVI melanoma, in the assay on NCI-H460 lung, in the assay with MCF7 breast and in the assay with SK-MEL-5 melanoma was > 100 µM throughout. Besides, the TGI in the assay with UACC-62 melanoma was > 100 µM; in the assay on OVCAR-8 ovarian, > 100 µM; in the assay on HS 578T breast it was 90.4 µM; in the assay on SNB-75 CNS, 85.3 µM.

Regarding `O=c1[nH]/c(=C/c2cccs2)c(=O)[nH]/c1=C/c1ccc(OCc2ccccc2)cn1`, the TGI in the assay with HCT-15 colon is 28.8 µM; in the assay with MDA-MB-435 it was 0.0182 µM; with LOX IMVI melanoma, > 100 µM; in the assay with NCI-H460 lung it was 3.46 µM; with MCF7 breast it was 39.6 µM; with SK-MEL-5 melanoma, > 62.6 µM. Moreover, the TGI was determined as 40.3 µM in the assay on UACC-62 melanoma, 65.4 µM in the assay with OVCAR-8 ovarian, 0.204 µM with HS 578T breast and 2.66 µM with SNB-75 CNS.

Regarding `S=c1sc2ccccc2n1CN1CCN(Cc2ccccc2)CC1`, the TGI in the assay on HCT-15 colon, in the assay on MDA-MB-435, with LOX IMVI melanoma, in the assay with NCI-H460 lung, in the assay with MCF7 breast and with SK-MEL-5 melanoma was > 100 µM each time. The TGI with UACC-62 melanoma, in the assay with OVCAR-8 ovarian, in the assay on HS 578T breast and in the assay with SNB-75 CNS was > 100 µM in each case.

As for `CC1CCC(O)/C=C/C(=O)OC(C)C(O)/C=C/C(=O)O1` (stereo not given), the TGI in the assay on HCT-15 colon, in the assay with MDA-MB-435, with LOX IMVI melanoma, in the assay with NCI-H460 lung, with MCF7 breast and in the assay with SK-MEL-5 melanoma was > 100 µM in each case. The TGI in the assay on UACC-62 melanoma, with OVCAR-8 ovarian, with HS 578T breast and in the assay on SNB-75 CNS was > 100 µM each time.

As for `O=C(O)c1cc(/C=C/c2ccc(O)c(O)c2)ccc1O`, the TGI in the assay on HCT-15 colon is > 100 µM; with MDA-MB-435, > 100 µM; in the assay with LOX IMVI melanoma, > 100 µM; in the assay with NCI-H460 lung it was > 100 µM; in the assay on MCF7 breast it was 51.4 µM; with SK-MEL-5 melanoma it was > 100 µM. The TGI in the assay with UACC-62 melanoma, in the assay with OVCAR-8 ovarian, in the assay with HS 578T breast and in the assay with SNB-75 CNS was > 100 µM each time.

In the case of `NC1=CN2c3ccccc3N(CC(=O)N3CCOCC3)C2C=C1` (stereo not given), the TGI in the assay on HCT-15 colon, in the assay with MDA-MB-435, with LOX IMVI melanoma, in the assay with NCI-H460 lung, in the assay with MCF7 breast and in the assay with SK-MEL-5 melanoma was > 100 µM throughout. For the same compound, the TGI in the assay with UACC-62 melanoma, with OVCAR-8 ovarian, with HS 578T breast and in the assay on SNB-75 CNS was > 100 µM each time.
